Measured values from ChEMBL document CHEMBL4616698, “Scaffold Repurposing of in-House Chemical Library toward the Identification of New Casein Kinase 1 δ Inhibitors” (ACS Med Chem Lett, 2020).

Columns and labels:
[1] = biological target: Casein kinase I isoform delta (Homo sapiens, UniProt P48730); assay: Inhibition of full length recombinant human GST-tagged CSNK1D expressed in baculovirus expression system using casein as substrate incubated for 10 mins in presence of ATP by KinaseGlo luminescence assay
[2] = biological target: Casein kinase 1, delta tv1 (Sus scrofa, UniProt M3VH47); assay: Inhibition of porcine brain CK-1delta using RRKHAAIGpSAYSITA peptide as substrate incubated for 30 mins in presence of [gamma-33P]-ATP by scintillation counting method
Casein kinase 1, delta tv1, sequence (M3VH47 whole entry): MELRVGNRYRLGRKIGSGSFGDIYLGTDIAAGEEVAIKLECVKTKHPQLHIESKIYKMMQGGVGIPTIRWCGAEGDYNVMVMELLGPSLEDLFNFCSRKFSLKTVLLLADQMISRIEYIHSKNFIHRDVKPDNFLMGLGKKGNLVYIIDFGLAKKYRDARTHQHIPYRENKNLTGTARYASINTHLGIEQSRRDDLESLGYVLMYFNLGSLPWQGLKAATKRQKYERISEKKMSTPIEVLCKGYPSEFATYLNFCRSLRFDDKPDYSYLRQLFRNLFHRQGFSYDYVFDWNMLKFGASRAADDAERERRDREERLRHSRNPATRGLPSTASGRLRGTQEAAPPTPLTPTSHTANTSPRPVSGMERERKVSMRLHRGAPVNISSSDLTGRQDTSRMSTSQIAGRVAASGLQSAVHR

Casein kinase I isoform delta, sequence (P48730 whole entry, canonical isoform): as the sequence (M3VH47 whole entry) above, with A340V, A401P, A406S, A412V counted along it

SMILES | IC50 [1] [µM] | IC50 [2] [µM]
Oc1cc(-c2cccc(Br)c2)nc2ccc3[nH]ccc3c12 | 13 | –
Nc1nccc(-c2c(-c3ccc(F)cc3)ncn2C2CCCCC2)n1 | – | 0.0077
CCn1ccc2c3c(=O)cc(-c4cccc5ccccc45)[nH]c3ccc21 | 15.2 | –
